Assay results: patent US9023850B2, “Nematocidal sulfonamides” (E I du Pont de Nemours and Company, priority 2010, dated 2015)

The molecules below were run on cucumber seedlings (assay: Test A: phytotoxicity to the cucumber seedlings of the test units). Conditions: 250 ppm active ingredient applied to soil, 7 days.
Format: in vivo
Description: Control of the southern root-knot nematode (Meloidogyne incognita) through contact and/or systemic means was evaluated in test units consisting of small open containers filled with a sandy soil mixture and cucumber seedlings. Test compounds were formulated using a solution containing 50% acetone and 50% water. Test compounds were applied directly to the soil of the test units at a concentration of 250 ppm active ingredient. Each test was replicated 3 times. After treatment, the test units were allowed to dry for 1 hour, after which time about 250 second-stage juvenile (J2) larvae were pipetted into the soil. The test units were held at 27° C. and watered as needed for 7 days. Nematocidal efficacy was determined by the amount of root gall formation observed when compared to an untreated control. No gall formation was indicative of 100% nematode control. Gall formation equivalent to that found in the untreated control was indicative of 0% control. No nematode control rating was given to compounds showing significant phytotoxicity.
`COc1ccc(Cl)c(S(=O)(=O)NC(=O)c2cn3cc(C(F)(F)F)ncc3n2)c1` [Compound 1, N-[(2-chloro-5-methoxyphenyl)sulfonyl]-6-(trifluoromethyl)imidazo[1,2-a]pyrazine-2-carboxamide] was tested, and the phytotoxicity was “no significant phytotoxicity”. For `O=C(NS(=O)(=O)c1cc(C(F)(F)F)ccc1Cl)c1cn2cc(Br)cnc2n1` [Compound 4, 6-bromo-N-[[2-chloro-5-(trifluoromethyl)phenyl]sulfonyl]imidazo[1,2-a]pyrimidine-2-carboxamide], the phytotoxicity was “no significant phytotoxicity”. For `O=C(NS(=O)(=O)c1cc(C(F)(F)F)ccc1Cl)c1cn2cc(C(F)(F)F)cnc2n1` [Compound 6, N-[[2-chloro-5-(trifluoromethyl)phenyl]sulfonyl]-6-(trifluoromethyl)imidazo[1,2-a]pyrimidine-2-carboxamide], the phytotoxicity was “no significant phytotoxicity”.
